Consider 15 compounds from patent publication US8865230B2, “Compositions and methods for treating parasitic infections” (TyraTech, Inc., priority 2006, dated 2014).

Molecules are shown by their SMILES.

The target in experiment [1] is T1, Tyramine receptor (TyrR) (Drosophila melanogaster, UniProt P22270).
T1 construct: expressed in transfected cells
T1 sequence (P22270 27-601): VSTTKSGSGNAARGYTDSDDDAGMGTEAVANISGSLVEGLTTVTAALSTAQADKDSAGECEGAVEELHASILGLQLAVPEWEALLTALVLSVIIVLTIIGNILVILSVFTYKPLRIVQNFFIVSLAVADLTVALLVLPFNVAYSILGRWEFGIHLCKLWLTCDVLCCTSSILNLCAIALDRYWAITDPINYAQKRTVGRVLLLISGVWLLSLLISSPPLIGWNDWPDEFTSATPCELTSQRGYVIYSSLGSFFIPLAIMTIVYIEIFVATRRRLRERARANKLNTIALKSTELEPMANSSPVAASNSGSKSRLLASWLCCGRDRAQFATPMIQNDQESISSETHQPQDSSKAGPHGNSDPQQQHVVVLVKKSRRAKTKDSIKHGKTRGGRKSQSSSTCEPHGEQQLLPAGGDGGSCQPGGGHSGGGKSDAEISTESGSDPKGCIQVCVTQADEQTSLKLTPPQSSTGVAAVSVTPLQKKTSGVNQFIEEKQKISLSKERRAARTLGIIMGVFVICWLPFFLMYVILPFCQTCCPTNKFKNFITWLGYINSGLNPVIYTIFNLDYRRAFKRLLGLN
As to the kind of experiment: Effect on intracellular cAMP in cells expressing TyrR (Example 14). The experiment is classed as cell-based.

Experiment [2] has as its target T1, Tyramine receptor (TyrR). Briefly: Effect on intracellular Ca2+ in cells expressing TyrR (Example 14). The experiment is classed as cell-based.
Another experiment deals with Hymenolepis nana. Briefly: H. nana in vivo, infected mice treated orally with single test agents Rx (Example 1). The following applies: 400 mg/kg orally daily for 5 days.
The target of experiment [3] is T1, Tyramine receptor (TyrR). As to the kind of experiment: Tyramine receptor binding affinity in cells expressing TyrR (Example 14).

For `C=CCc1ccc(O)c(OC)c1` [Eugenol], the “Effects Intracellular cAMP (Yes or No)” value at Tyramine receptor (TyrR) [1] was “No”. In addition, the “Effects Intracellular Ca2+ (Yes or No)” value on Tyramine receptor (TyrR) [2] was “Yes”.

Take `Cc1ccc(C(C)C)cc1O` [Rx 4, carvacrol]: in the experiment with Hymenolepis nana, the “Egg Count (X ± SD), During Treatment 1st Day” value was found to be 5 ± 0.6 and the “Egg Count (X ± SD), During Treatment 3rd Day” value is 1 ± 1.9.

As to `CC(C)=CCC/C(C)=C/CO` [Rx 5, geraniol], the “Effects Intracellular cAMP (Yes or No)” value on Tyramine receptor (TyrR) [1] is given as “Yes”. On Tyramine receptor (TyrR) [2], the “Effects Intracellular Ca2+ (Yes or No)” value is “Yes”. In the experiment on Hymenolepis nana, the “Egg Count (X ± SD), During Treatment 1st Day” value is reported as 14 ± 13.9.

As to `CC12CCC(CC1)C(C)(C)O2` [Rx 6, cineol], at Tyramine receptor (TyrR) [1], the “Effects Intracellular cAMP (Yes or No)” value was “Yes”. Moreover, the “Effects Intracellular Ca2+ (Yes or No)” value at Tyramine receptor (TyrR) [2] was “Yes”. In the experiment on Hymenolepis nana, the “Egg Count (X ± SD), During Treatment 1st Day” value is reported as 5 ± 9.5 and the “Egg Count (X ± SD), During Treatment 3rd Day” value came to 1 ± 1.2.

With `CC=Cc1ccc(OC)cc1` [anethole], the “Effects Intracellular cAMP (Yes or No)” value at Tyramine receptor (TyrR) [1] is “Yes”. The “Tyramine Receptor Binding Affinity (High or Low)” value at Tyramine receptor (TyrR) [3] is on record as “Low”. Further, the “Effects Intracellular Ca2+ (Yes or No)” value on Tyramine receptor (TyrR) [2] was “Yes”.

For `OCc1ccccc1` [benzyl alcohol], the “Effects Intracellular cAMP (Yes or No)” value at Tyramine receptor (TyrR) [1] was “Yes”. The “Effects Intracellular Ca2+ (Yes or No)” value at Tyramine receptor (TyrR) [2] was “No”.

With `OCC=Cc1ccccc1` [cinnamyl alcohol], the “Effects Intracellular cAMP (Yes or No)” value at Tyramine receptor (TyrR) [1] is given as “No”. In addition, on Tyramine receptor (TyrR) [2], the “Effects Intracellular Ca2+ (Yes or No)” value is given as “Yes”.

Regarding `C=C(C)[C@H]1CC=C(C)CC1` [d-limonene], at Tyramine receptor (TyrR) [1], the “Effects Intracellular cAMP (Yes or No)” value was “Yes and No”. For the same compound, at Tyramine receptor (TyrR) [2], the “Effects Intracellular Ca2+ (Yes or No)” value is recorded as “Yes”.

As for `C=CC(C)(O)CCC=C(C)C` (stereo not shown) [linalool], at Tyramine receptor (TyrR) [1], the “Effects Intracellular cAMP (Yes or No)” value is on record as “No”. For the same compound, the “Tyramine Receptor Binding Affinity (High or Low)” value at Tyramine receptor (TyrR) [3] is on record as “high”. For the same compound, the “Effects Intracellular Ca2+ (Yes or No)” value on Tyramine receptor (TyrR) [2] is given as “Yes”.

Turning to `Cc1ccc(C(C)C)cc1` [p-cymene], the “Effects Intracellular cAMP (Yes or No)” value at Tyramine receptor (TyrR) [1] was “Yes”. Also, on Tyramine receptor (TyrR) [3], the “Tyramine Receptor Binding Affinity (High or Low)” value is listed as “low”. Moreover, on Tyramine receptor (TyrR) [2], the “Effects Intracellular Ca2+ (Yes or No)” value was “Yes”.

For `CCC(=O)OCCc1ccccc1` [phenethyl proprionate], the “Effects Intracellular cAMP (Yes or No)” value at Tyramine receptor (TyrR) [1] is reported as “Yes”. Also, the “Effects Intracellular Ca2+ (Yes or No)” value at Tyramine receptor (TyrR) [2] is listed as “No”.

In the case of `CCCCCCCCCCCCOS(=O)(=O)[O-].[Na+]` [sodium lauryl sulfate], the “Effects Intracellular cAMP (Yes or No)” value on Tyramine receptor (TyrR) [1] is on record as “No”. Besides, the “Effects Intracellular Ca2+ (Yes or No)” value on Tyramine receptor (TyrR) [2] is on record as “No”.

`CCC(C)(O)CCCC(C)C` (stereo not shown) [tetrahydrolinalool]: on Tyramine receptor (TyrR) [1], the “Effects Intracellular cAMP (Yes or No)” value is “Yes”. In addition, the “Effects Intracellular Ca2+ (Yes or No)” value at Tyramine receptor (TyrR) [2] is reported as “Yes”.

Take `Cc1ccc(C(C)C)c(O)c1` [thymol]: the “Effects Intracellular cAMP (Yes or No)” value on Tyramine receptor (TyrR) [1] is “No”. In addition, the “Tyramine Receptor Binding Affinity (High or Low)” value at Tyramine receptor (TyrR) [3] is “high”. The “Effects Intracellular Ca2+ (Yes or No)” value at Tyramine receptor (TyrR) [2] is “Yes”.

Consider `CC1=CCC2CC1C2(C)C` (stereo not drawn) [α-pinene], for which, on Tyramine receptor (TyrR) [1], the “Effects Intracellular cAMP (Yes or No)” value is “No”. In addition, on Tyramine receptor (TyrR) [2], the “Effects Intracellular Ca2+ (Yes or No)” value is reported as “No”.
